In ChEMBL document CHEMBL1909046, “DrugMatrix in vitro pharmacology data”:
pIC50: −log10 of the molar value.

Experiments:
[1] = DRUGMATRIX: ATPase, Na+/K+ enzyme inhibition (substrate: ATP); type: tissue-based, Sus scrofa, Heart; conditions: Not Active = under 50% inhibition at 10 µM
Substance-K receptor = target: T1, Substance-K receptor (Homo sapiens, UniProt P21452); type: cell membranes, CHO, Membrane; conditions: cho; further: in other assays of this panel Not Active means under 50% inhibition at 10 µM
T1 sequence (P21452 whole entry): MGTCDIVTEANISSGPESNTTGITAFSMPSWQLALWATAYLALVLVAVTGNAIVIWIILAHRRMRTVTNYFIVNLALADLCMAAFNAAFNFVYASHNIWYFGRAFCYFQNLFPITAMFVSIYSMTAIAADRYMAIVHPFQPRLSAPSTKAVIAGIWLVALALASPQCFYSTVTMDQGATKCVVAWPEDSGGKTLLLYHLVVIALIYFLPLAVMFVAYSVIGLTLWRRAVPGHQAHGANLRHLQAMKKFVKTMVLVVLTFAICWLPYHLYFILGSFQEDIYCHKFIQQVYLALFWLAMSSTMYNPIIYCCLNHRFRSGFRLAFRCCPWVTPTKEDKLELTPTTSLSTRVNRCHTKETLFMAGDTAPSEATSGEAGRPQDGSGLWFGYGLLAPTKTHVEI

Thromboxane-A synthase = target: T2, Thromboxane-A synthase (Homo sapiens, UniProt P24557); experiment: biochemical; type: tissue-based, Platelet; conditions: platelet;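 further: enzyme inhibition assay with PGH2 supplied as substrate; in other assays of this panel Not Active means under 50% inhibition at 10 µM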
T2 sequence (P24557 whole entry): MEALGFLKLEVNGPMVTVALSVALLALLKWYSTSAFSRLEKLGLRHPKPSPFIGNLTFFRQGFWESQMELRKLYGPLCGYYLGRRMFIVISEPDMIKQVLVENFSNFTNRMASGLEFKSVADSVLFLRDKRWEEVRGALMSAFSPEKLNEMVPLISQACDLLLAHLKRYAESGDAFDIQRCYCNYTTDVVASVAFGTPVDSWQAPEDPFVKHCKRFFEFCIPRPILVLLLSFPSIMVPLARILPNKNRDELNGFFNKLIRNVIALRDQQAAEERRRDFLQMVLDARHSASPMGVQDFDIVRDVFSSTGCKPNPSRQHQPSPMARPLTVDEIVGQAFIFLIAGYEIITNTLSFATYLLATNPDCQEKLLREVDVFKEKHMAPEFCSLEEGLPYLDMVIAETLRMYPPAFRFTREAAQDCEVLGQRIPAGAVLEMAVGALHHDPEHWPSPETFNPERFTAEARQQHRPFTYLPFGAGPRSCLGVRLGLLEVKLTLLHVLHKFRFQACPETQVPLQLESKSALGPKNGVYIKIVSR

[2] = target: T3, C-X-C chemokine receptor type 1 (Homo sapiens, UniProt P25024); further: in other assays of this panel Not Active means under 50% inhibition at 10 µM
T3 sequence (P25024 whole entry): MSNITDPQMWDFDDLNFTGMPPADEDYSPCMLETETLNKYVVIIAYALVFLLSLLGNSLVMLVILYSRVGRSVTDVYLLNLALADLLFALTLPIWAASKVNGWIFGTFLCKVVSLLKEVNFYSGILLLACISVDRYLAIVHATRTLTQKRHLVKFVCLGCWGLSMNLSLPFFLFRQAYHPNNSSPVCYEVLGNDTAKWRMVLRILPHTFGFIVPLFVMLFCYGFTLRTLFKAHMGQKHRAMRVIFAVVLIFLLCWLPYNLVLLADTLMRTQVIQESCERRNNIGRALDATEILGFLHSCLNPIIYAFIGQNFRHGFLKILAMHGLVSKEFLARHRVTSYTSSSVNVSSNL

Melanocortin receptor 3 = Melanocortin receptor 3 (Homo sapiens, UniProt P41968); type: cell membranes, Membrane; conditions: hek293; further: in other assays of this panel Not Active means under 50% inhibition at 10 µM
Chain of Melanocortin receptor 3 (P41968 whole entry): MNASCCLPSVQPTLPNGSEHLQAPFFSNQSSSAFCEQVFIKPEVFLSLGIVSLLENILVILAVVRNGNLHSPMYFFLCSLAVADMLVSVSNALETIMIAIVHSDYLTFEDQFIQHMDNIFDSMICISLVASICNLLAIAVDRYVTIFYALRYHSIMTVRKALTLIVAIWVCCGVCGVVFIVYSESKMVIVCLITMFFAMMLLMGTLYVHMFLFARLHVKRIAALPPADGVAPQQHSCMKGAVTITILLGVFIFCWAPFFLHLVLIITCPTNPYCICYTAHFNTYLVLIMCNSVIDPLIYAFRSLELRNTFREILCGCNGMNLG

[3] = DRUGMATRIX: Nicotinic Acetylcholine radioligand binding (ligand: [125I] Epibatidine); type: cell membranes, Membrane; conditions: imr-32; Not Active = under 50% inhibition at 10 µM
[4] = target: cGMP-specific 3',5'-cyclic phosphodiesterase (Homo sapiens, UniProt O76074); experiment: DRUGMATRIX: Phosphodiesterase PDE5 enzyme inhibition (substrate: [3H]cGMP + cGMP); type: tissue-based, Platelet; conditions: platelet; Not Active = under 50% inhibition at 10 µM
[5] = target: Protein phosphatase 3 catalytic subunit alpha (Homo sapiens, UniProt Q08209); design: species or system Escherichia coli
Cytochrome P450 1A2 = target: T4, Cytochrome P450 1A2 (Homo sapiens, UniProt P05177); conditions: bti-tn-5b1-4; further: in other assays of this panel Not Active means under 50% inhibition at 10 µM
T4 sequence (P05177 whole entry): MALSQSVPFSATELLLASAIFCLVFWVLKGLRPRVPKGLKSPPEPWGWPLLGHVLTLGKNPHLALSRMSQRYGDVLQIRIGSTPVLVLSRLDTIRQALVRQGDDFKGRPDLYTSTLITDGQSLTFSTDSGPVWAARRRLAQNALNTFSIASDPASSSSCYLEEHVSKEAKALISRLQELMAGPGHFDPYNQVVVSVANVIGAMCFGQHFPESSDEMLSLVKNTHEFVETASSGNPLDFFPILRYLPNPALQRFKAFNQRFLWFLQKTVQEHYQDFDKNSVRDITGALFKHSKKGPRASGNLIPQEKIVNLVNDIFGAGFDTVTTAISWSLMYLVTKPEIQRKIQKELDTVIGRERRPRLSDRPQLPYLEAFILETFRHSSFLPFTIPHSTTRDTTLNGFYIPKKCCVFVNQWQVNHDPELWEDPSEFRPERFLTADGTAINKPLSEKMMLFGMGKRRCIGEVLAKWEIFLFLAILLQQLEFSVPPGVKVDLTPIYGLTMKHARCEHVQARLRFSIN

Cytochrome P450 2A6 = target: T5, Cytochrome P450 2A6 (Homo sapiens, UniProt P11509); conditions: bti-tn-5b1-4; further: in other assays of this panel Not Active means under 50% inhibition at 10 µM
T5 sequence (P11509 whole entry): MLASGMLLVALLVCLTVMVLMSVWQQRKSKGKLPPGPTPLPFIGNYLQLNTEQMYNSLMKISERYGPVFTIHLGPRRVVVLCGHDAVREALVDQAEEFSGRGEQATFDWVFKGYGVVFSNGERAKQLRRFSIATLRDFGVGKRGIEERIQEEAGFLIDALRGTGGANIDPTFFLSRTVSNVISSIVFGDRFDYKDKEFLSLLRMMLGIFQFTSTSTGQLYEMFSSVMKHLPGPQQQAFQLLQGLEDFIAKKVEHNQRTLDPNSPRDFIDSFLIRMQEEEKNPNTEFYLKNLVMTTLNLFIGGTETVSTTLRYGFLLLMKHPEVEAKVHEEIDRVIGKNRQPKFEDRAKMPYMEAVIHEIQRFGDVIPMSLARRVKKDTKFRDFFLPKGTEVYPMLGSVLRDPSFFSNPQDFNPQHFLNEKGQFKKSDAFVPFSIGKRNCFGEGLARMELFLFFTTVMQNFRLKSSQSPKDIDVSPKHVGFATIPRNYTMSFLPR

Compound	IC50 [1]	Ki [1]	IC50 (Substance-K receptor)	IC50 (Thromboxane-A synthase)	IC50 [2]	IC50 (Melanocortin receptor 3)	IC50 [3]	Ki [3]	IC50 [4]	IC50 [5]	IC50 (Cytochrome P450 1A2)	Ki (Cytochrome P450 1A2)	IC50 (Cytochrome P450 2A6)	Ki (Cytochrome P450 2A6)	Ki (Substance-K receptor)	Ki (Thromboxane-A synthase)	Ki [2]	Ki (Melanocortin receptor 3)	Ki [4]	Ki [5]	further results
CNC(=O)Oc1ccc2c(c1)[C@]1(C)CCN(C)[C@@H]1N2C [PHYSOSTIGMINE]	Not Active	Not Active	Not Active	Not Active	Not Active	Not Active	Not Active	Not Active	Not Active	Not Active	Not Active	Not Active	Not Active	Not Active							
C=C(C)[C@@H]1[C@H]2OC(=O)[C@@H]1[C@]1(O)C[C@H]3O[C@]34C(=O)O[C@H]2[C@]14C [PICROTOXININ]	Not Active	Not Active	Not Active	Not Active	Not Active	Not Active	Not Active	Not Active	Not Active	Not Active	Not Active	Not Active	Not Active	Not Active							
CN1C(C(=O)Nc2ccccn2)=C(O)c2ccccc2S1(=O)=O [PIROXICAM]	Not Active	Not Active	Not Active	Not Active	Not Active	Not Active	Not Active	Not Active	Not Active	Not Active	Not Active	Not Active	Not Active	Not Active							
CCC1(c2ccccc2)C(=O)NCNC1=O [PRIMIDONE]	Not Active	Not Active	Not Active	Not Active	Not Active	Not Active	Not Active	Not Active	Not Active	Not Active	Not Active	Not Active	Not Active	Not Active							
CCCc1cc(=O)[nH]c(=S)[nH]1 [PROPYLTHIOURACIL]	Not Active	Not Active	Not Active	Not Active	Not Active	Not Active	Not Active	Not Active	Not Active	Not Active	Not Active	Not Active	Not Active	Not Active							
COc1ccc(CN(CCN(C)C)c2ccccn2)cc1 [PYRILAMINE]	Not Active	Not Active	Not Active	Not Active	Not Active	Not Active	Not Active	Not Active	Not Active	Not Active	Not Active	Not Active	Not Active	Not Active							
CARBOPLATIN	Not Active	Not Active	Not Active	Not Active	Not Active	Not Active	Not Active	Not Active	Not Active	Not Active	Not Active	Not Active	Not Active	Not Active	Not Active	Not Active	Not Active	Not Active	Not Active	Not Active	
CISPLATIN			Not Active		Not Active	Not Active	Not Active	Not Active	Not Active	Not Active	Not Active	Not Active	Not Active	Not Active	Not Active		Not Active	Not Active	Not Active	Not Active	pIC50 ([1]; read-out: IC50): 5.03; pIC50 (Thromboxane-A synthase; read-out: IC50): 5.03
GOLD SODIUM THIOMALATE	Not Active	Not Active	Not Active	Not Active	Not Active	Not Active	Not Active	Not Active	Not Active	Not Active	Not Active	Not Active	Not Active	Not Active	Not Active	Not Active	Not Active	Not Active	Not Active	Not Active	
OXALIPLATIN	Not Active	Not Active	Not Active	Not Active	Not Active	Not Active	Not Active	Not Active	Not Active	Not Active	Not Active	Not Active	Not Active	Not Active	Not Active	Not Active	Not Active	Not Active	Not Active	Not Active	
